Reference: ChEMBL document CHEMBL1139030, “Inhibition of jack bean urease by organobismuth compounds” (Bioorg Med Chem Lett, 2006)
Active and inactive are the calls of the source. No cut-off for these calls is given here.

Target: Urease (Canavalia ensiformis) (UniProt P07374)
Test: Inhibitory activity against jack bean urease

UniProt P07374, sequence (P07374 whole entry, looked up): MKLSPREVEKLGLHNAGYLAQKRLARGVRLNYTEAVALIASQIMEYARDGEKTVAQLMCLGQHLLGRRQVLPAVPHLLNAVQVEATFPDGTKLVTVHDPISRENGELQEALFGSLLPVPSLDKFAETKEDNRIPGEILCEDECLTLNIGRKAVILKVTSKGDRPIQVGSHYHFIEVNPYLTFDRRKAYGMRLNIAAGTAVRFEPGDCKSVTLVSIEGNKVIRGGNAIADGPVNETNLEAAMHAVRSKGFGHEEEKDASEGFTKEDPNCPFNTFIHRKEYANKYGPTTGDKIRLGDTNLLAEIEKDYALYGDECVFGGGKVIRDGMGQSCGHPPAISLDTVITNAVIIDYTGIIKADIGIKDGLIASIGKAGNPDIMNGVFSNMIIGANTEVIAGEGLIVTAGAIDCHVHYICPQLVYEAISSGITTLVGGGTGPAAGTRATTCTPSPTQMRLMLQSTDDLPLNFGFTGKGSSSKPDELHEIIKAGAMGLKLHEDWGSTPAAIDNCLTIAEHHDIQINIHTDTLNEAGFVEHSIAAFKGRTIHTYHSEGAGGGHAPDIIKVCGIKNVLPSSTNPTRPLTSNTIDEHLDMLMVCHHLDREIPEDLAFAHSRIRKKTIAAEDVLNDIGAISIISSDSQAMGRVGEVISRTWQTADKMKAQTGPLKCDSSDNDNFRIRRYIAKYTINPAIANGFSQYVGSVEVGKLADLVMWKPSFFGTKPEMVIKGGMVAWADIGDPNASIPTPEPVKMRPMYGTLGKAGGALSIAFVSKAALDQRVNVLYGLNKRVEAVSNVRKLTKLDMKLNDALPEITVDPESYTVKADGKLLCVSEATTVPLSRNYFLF

Substance	Activity
ethyl 4-{bis[4-(ethoxycarbonyl)phenyl]difluorobismuthanyl}benzoate	Active
trip-tolylbismuthine	Active
4-[bis(4-cyanophenyl)difluorobismuthanyl]benzonitrile	Active
ethyl 4-{bis[4-(ethoxycarbonyl)phenyl]bismuthanyl}benzoate	Active
[sequence]	Active
difluorotris[4-(trifluoromethyl)phenyl]bismuthane	Active
tris(4-(trifluoromethyl)phenyl)bismuthine	Active
tris(4-fluorophenyl)bismuthine	Active
difluorotris(4-methylphenyl)bismuthane	Active
4-[bis(4-cyanophenyl)bismuthanyl]benzonitrile	Active
difluorotris(2,4,6-trimethylphenyl)bismuthane	Active
tris(4-fluorophenyl)bismuth dichloride	Active
difluorotris(4-fluorophenyl)bismuthane	Active
TRIPHENYLBISMUTHINE	Active
